Data: US9862713B2, “Substituted bicyclic heteroaryl compounds as RXR agonists” (CONNEXIOS LIFE SCIENCES PVT. LTD., priority 2014, dated 2018)

Test system: hRXR α, β, or γ
Test: Transactivation assay (RARE-Luc dual luciferase reporter in HEK-293 cells), activity relative to LG268
Assay type: cell-based, human
Settings: 24 h, luciferase activity expressed relative to LG268; for Activity at 1 µM: compound at 1 µM; for Activity at 300 nM: compound at 300 nM
Protocol: HEK-293 cells (ATCC) were seeded one day prior to transfection. For assessing EC50 of activation of RXR isoforms 2 μg of hRXR α, β, or γ (OriGENE, USA) over-expressing vector, 1 μg of plasmid expressing firefly luciferase under RARE element (RARE-Luc) and 25 ng of renilla luciferase vector (QIAGEN, USA) were co-transfected using lipofectamine reagent. Post 24 h of transfection, cells were treated with different concentrations of RXR agonists (100 nM, 300 nM and 1 uM) for 24 h followed by estimation of luciferase activity using Dual Luciferase Reporter Assay System (Promega). Luciferase activity was normalized to that of renilla luciferase. The activities of the RXR compounds were expressed relative to LG268, a known RXR agonist.

| SMILES | Activity at 1 µM | Activity at 300 nM |
| --- | --- | --- |
| CCN(c1ncc(C(=O)O)cn1)c1nc2c(s1)C(C)(C)CCC2(C)C [Compound 42, 2-[Ethyl(4,4,7,7-tetramethyl-4,5,6,7-tetrahydro-1,3-benzothiazol-2-yl)amino]pyrimidine-5-carboxylic acid] | ** (>0.7 and <0.8) | – |
| CC1(C)CCC(C)(C)c2sc(N(CC3CC3)c3ncc(C(=O)O)cn3)nc21 [Compound 43, 2-[(Cyclopropylmethyl) (4,4,7,7-tetramethyl-4,5,6,7-tetrahydro-1,3-benzothiazol-2-yl)amino]pyrimidine-5-carboxylic acid] | * (<0.7) | – |
| Cc1nc2cc(C(=O)O)ccc2n1-c1nc2c(s1)C(C)(C)CCC2(C)C [Compound 44, 2-Methyl-1-(4,4,7,7-tetramethyl-4,5,6,7-tetrahydro-1,3-benzothiazol-2-yl)-1H-benzimidazole-5-carboxylic acid] | * (<0.7) | – |
| CC1(C)CCC(C)(C)c2sc(-n3nnc4cc(C(=O)O)ccc43)nc21 [Compound 45, 1-(4,4,7,7-Tetramethyl-4,5,6,7-tetrahydro-1,3-benzothiazol-2-yl)-1H-benzotriazole-5-carboxylic acid] | * (<0.7) | – |
| CC1(C)CCC(C)(C)c2sc(Oc3ccc(C(=O)O)cc3)nc21 [Compound 46, 4-[(4,4,7,7-Tetramethyl-4,5,6,7-tetrahydro-1,3-benzothiazol-2-yl)oxy]benzoic acid] | * (<0.7) | ** (>0.3 and <0.4) |
| CC1(C)CCC(C)(C)c2sc(C(=O)c3ccc(C(=O)O)cc3)nc21 [Compound 47, 4-[(4,4,7,7-Tetramethyl-4,5,6,7-tetrahydro-1,3-benzothiazol-2-yl)carbonyl]benzoic acid] | * (<0.7) | – |
| CC1(C)CCC(C)(C)c2sc(/C=C/c3ccc(C(=O)O)cc3)nc21 [Compound 48, 4-[(E)-2-(4,4,7,7-Tetramethyl-4,5,6,7-tetrahydro-1,3-benzothiazol-2-yl)ethenyl]benzoic acid] | * (<0.7) | – |
| CC1(C)CCC(C)(C)c2sc(/C=C\c3ccc(C(=O)O)cc3)nc21 [Compound 49, 4-[(Z)-2-(4,4,7,7-Tetramethyl-4,5,6,7-tetrahydro-1,3-benzothiazol-2-yl)ethenyl]benzoic acid] | ***** (>1) | – |
| CC1(C)CCC(C)(C)c2sc(/C=C/c3ccc(C(=O)O)cn3)nc21 [Compound 50, 6-[(E)-2-(4,4,7,7-Tetramethyl-4,5,6,7-tetrahydro-1,3-benzothiazol-2-yl)ethenyl]pyridine-3-carboxylic acid] | * (<0.7) | – |
| Cc1c(N(CC(C)C)c2ccc(C(=O)O)c([N+](=O)[O-])c2)sc2c1C(C)(C)CCC2(C)C [Compound 51, 4-[(2-methylpropyl) (3,4,4,7,7-pentamethyl-4,5,6,7-tetrahydro-1-benzothiophen-2-yl)amino]-2-nitrobenzoic acid] | – | ***** (>0.6) |
| CC1(C)CC(=O)C(C)(C)c2nc(N(CC3CC3)c3ccc(C(=O)O)cn3)sc21 [Compound 52, 6-[(cyclopropylmethyl) (4,4,7,7-tetramethyl-5-oxo-4,5,6,7-tetrahydro-1,3-benzothiazol-2-yl)amino]pyridine-3-carboxylic acid] | – | ***** (>0.6) |
| CC(C)CN(c1ccc(C(=O)O)cc1)c1nc2c(s1)C(C)(C)CC(=O)C2(C)C [Compound 53, 4-[(2-methylpropyl) (4,4,7,7-tetramethyl-5-oxo-4,5,6,7-tetrahydro-1,3-benzothiazol-2-yl)amino]benzoic acid] | – | ***** (>0.6) |
| COc1cc(N(CC(C)C)c2sc3c(c2C)C(C)(C)CCC3(C)C)ccc1C(=O)O [Compound 54, 2-methoxy-4-[(2-methylpropyl)(3,4,4,7,7-pentamethyl-4,5,6,7-tetrahydro-1-benzothiophen-2-yl)amino]benzoic acid] | – | *** (>0.4 and <0.5) |
| Cc1c(N(CC(C)C)c2ccc(C(=O)O)c(OCC3CC3)c2)sc2c1C(C)(C)CCC2(C)C [Compound 55, 2-(cyclopropylmethoxy)-4-[(2-methylpropyl) (3,4,4,7,7-pentamethyl-4,5,6,7-tetrahydro-1-benzothiophen-2-yl)amino]benzoic acid] | – | *** (>0.4 and <0.5) |
| C#CCOc1cc(N(CC(C)C)c2sc3c(c2C)C(C)(C)CCC3(C)C)ccc1C(=O)O [Compound 56, 4-[(2-methylpropyl) (3,4,4,7,7-pentamethyl-4,5,6,7-tetrahydro-1-benzothiophen-2-yl)amino]-2-(prop-2-yn-1-yloxy)benzoic acid] | – | *** (>0.4 and <0.5) |
| Cc1c(N(CC(C)C)c2ccc(C(=O)O)c(Oc3ccccc3)c2)sc2c1C(C)(C)CCC2(C)C [Compound 57, 4-[(2-methylpropyl) (3,4,4,7,7-pentamethyl-4,5,6,7-tetrahydro-1-benzothiophen-2-yl)amino]-2-phenoxybenzoic acid] | – | ***** (>0.6) |

| SMILES | Activity at 1 µM | Activity at 300 nM |
| --- | --- | --- |
| Cc1cc(N(CC(C)C)c2nc3c(s2)C(C)(C)CCC3(C)C)ccc1C(=O)O [Compound 58, 2-methyl-4-[(2-methylpropyl) (4,4,7,7-tetramethyl-4,5,6,7-tetrahydro-1,3-benzothiazol-2-yl)amino]benzoic acid] | – | *** (>0.4 and <0.5) |
| Cc1cc(N(CC2CC2)c2nc3c(s2)C(C)(C)CCC3(C)C)ccc1C(=O)O [Compound 59, 4-[(cyclopropylmethyl) (4,4,7,7-tetramethyl-4,5,6,7-tetrahydro-1,3-benzothiazol-2-yl)amino]-2-methylbenzoic acid] | – | ** (>0.3 and <0.4) |
| Cc1cc(C(=O)O)ccc1N(CC1CC1)c1nc2c(s1)C(C)(C)CCC2(C)C [Compound 60, 4-[(cyclopropylmethyl) (4,4,7,7-tetramethyl-4,5,6,7-tetrahydro-1,3-benzothiazol-2-yl)amino]-3-methylbenzoic acid] | – | ** (>0.3 and <0.4) |
| Cc1cc(C(=O)O)ccc1N(CC(C)C)c1nc2c(s1)C(C)(C)CCC2(C)C [Compound 61, 3-methyl-4-[(2-methylpropyl) (4,4,7,7-tetramethyl-4,5,6,7-tetrahydro-1,3-benzothiazol-2-yl)amino]benzoic acid] | – | **** (>0.5 to <0.6) |
| C=CCN(c1ccc(C(=O)O)cc1)c1nc2c(s1)C(C)(C)CCC2(C)C [Compound 62, 4-[prop-2-en-1-yl(4,4,7,7-tetramethyl-4,5,6,7-tetrahydro-1,3-benzothiazol-2-yl)amino]benzoic acid] | – | ***** (>0.6) |
| CC1(C)CCC(C)(C)c2sc(N(c3ccc(C(=O)O)cc3)c3ccc(C(=O)O)o3)nc21 [Compound 63, 5-[(4-carboxyphenyl) (4,4,7,7-tetramethyl-4,5,6,7-tetrahydro-1,3-benzothiazol-2-yl)amino]furan-2-carboxylic acid] | – | *** (>0.4 and <0.5) |
| CC(C)CN(c1ccc(C(=O)O)cn1)c1nc2c(s1)C(C)(C)CCC2(C)C [Compound 64, 6-[(2-methylpropyl) (4,4,7,7-tetramethyl-4,5,6,7-tetrahydro-1,3-benzothiazol-2-yl)amino]pyridine-3-carboxylic acid] | – | ***** (>0.6) |
| CCCN(c1ccc(C(=O)O)cn1)c1nc2c(s1)C(C)(C)CCC2(C)C [Compound 65, 6-[propyl(4,4,7,7-tetramethyl-4,5,6,7-tetrahydro-1,3-benzothiazol-2-yl)amino]pyridine-3-carboxylic acid] | – | ***** (>0.6) |
| CC1(C)CCC(C)(C)c2sc(N(Cc3ccccc3)c3ccc(C(=O)O)cn3)nc21 [Compound 66, 6-[benzyl(4,4,7,7-tetramethyl-4,5,6,7-tetrahydro-1,3-benzothiazol-2-yl)amino]pyridine-3-carboxylic acid] | – | ***** (>0.6) |
| CC(C)CN(c1ccc(C(=O)O)nc1)c1nc2c(s1)C(C)(C)CCC2(C)C [Compound 67, 5-[(2-methylpropyl) (4,4,7,7-tetramethyl-4,5,6,7-tetrahydro-1,3-benzothiazol-2-yl)amino]pyridine-2-carboxylic acid] | – | * (<0.3) |
| CC1(C)CCC(C)(C)c2sc(N(CC3CC3)c3ncc(C(=O)O)cc3Cl)nc21 [Compound 68] | – | * (<0.3) |
| CC(C)CN(c1nc2c(s1)C(C)(C)CCC2(C)C)c1ncc(C(=O)O)cc1Cl [Compound 69, 5-chloro-6-[(2-methylpropyl) (4,4,7,7-tetramethyl-4,5,6,7-tetrahydro-1,3-benzothiazol-2-yl)amino]pyridine-3-carboxylic acid] | – | * (<0.3) |
| CC1(C)CCC(C)(C)c2sc(N(CC3CC3)c3cc(Cl)c(C(=O)O)cn3)nc21 [Compound 70, 4-chloro-6-[(cyclopropylmethyl) (4,4,7,7-tetramethyl-4,5,6,7-tetrahydro-1,3-benzothiazol-2-yl)amino]pyridine-3-carboxylic acid] | – | ***** (>0.6) |
| COc1cc(C(=O)O)ccc1N(CC1CC1)c1nc2c(s1)C(C)(C)CCC2(C)C [Compound 71, 4-[(cyclopropylmethyl) (4,4,7,7-tetramethyl-4,5,6,7-tetrahydro-1,3-benzothiazol-2-yl)amino]-3-methoxybenzoic acid] | – | * (<0.3) |
| COc1cc(N(CC2CC2)c2nc3c(s2)C(C)(C)CCC3(C)C)ccc1C(=O)O [Compound 72] | – | * (<0.3) |
| COc1cc(N(CC(C)C)c2nc3c(s2)C(C)(C)CCC3(C)C)ccc1C(=O)O [Compound 73, 2-methoxy-4-[(2-methylpropyl) (4,4,7,7-tetramethyl-4,5,6,7-tetrahydro-1,3-benzothiazol-2-yl)amino]benzoic acid] | – | ** (>0.3 and <0.4) |
